In ChEMBL document CHEMBL1201862, “PubChem BioAssay data set” (2004):
Calls of active or inactive are those of the source.

Experiments:
Procathepsin L = Procathepsin L (Homo sapiens, UniProt P07711)
Aspartyl aminopeptidase = molecular target: T1, Aspartyl aminopeptidase (Plasmodium falciparum 3D7, UniProt Q8I2J3)
T1 sequence (Q8I2J3 whole entry): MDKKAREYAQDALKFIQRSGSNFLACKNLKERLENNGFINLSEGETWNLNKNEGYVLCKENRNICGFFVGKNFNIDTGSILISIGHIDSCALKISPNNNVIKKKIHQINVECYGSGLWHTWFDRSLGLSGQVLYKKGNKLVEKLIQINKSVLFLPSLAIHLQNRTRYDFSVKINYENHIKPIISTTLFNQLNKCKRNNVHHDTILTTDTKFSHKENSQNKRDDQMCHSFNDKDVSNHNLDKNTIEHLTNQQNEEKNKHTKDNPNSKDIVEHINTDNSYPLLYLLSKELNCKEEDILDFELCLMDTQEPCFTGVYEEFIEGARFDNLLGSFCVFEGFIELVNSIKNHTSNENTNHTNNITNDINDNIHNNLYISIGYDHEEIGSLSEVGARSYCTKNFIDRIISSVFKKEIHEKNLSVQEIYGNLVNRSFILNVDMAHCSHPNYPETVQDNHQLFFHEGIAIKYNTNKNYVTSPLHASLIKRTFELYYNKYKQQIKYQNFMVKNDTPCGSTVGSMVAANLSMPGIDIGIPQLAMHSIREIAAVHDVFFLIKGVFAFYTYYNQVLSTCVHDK

Prothrombin [1] = molecular target: Prothrombin (Homo sapiens, UniProt P00734); assay: Thrombin 1536 HTS Dose Response Confirmation. [Related pubchem assays: 1046 (Thrombin 1536 HTS; hits were confirmed in this assay)]; assay type: functional
[2] = molecular target: T2, High affinity choline transporter 1 (Homo sapiens, UniProt Q9GZV3); assay: human choline transporter blockers, potency – cell-based, 5-point CRC, membrane potential dye, dose response (AID 504840); assay type: functional
T2 sequence (Q9GZV3 whole entry): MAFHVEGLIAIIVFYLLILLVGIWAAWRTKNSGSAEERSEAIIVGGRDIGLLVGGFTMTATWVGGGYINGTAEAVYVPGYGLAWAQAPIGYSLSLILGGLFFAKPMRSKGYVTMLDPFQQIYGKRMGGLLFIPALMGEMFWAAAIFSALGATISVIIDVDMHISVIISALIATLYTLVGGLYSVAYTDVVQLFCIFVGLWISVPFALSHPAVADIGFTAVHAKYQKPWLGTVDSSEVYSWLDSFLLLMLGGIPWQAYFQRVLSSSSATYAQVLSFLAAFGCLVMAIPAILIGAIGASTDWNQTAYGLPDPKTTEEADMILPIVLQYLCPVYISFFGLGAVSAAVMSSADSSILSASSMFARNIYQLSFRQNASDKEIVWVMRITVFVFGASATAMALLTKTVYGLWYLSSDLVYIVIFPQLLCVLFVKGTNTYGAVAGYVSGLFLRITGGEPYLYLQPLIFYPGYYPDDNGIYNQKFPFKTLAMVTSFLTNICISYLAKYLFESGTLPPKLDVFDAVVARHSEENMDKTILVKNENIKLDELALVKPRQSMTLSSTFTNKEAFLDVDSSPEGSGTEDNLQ

Prothrombin [3] = molecular target: Prothrombin (Bos taurus, UniProt P00735); assay: thrombin protease inhibitors – biochemical, fluorescence polarization, uHTS hits, dose response (AID 602369); assay type: functional
[4] = molecular target: 72 kDa type IV collagenase (Homo sapiens, UniProt P08253); assay: Dose Response validation of uHTS RPN11 inhibitor hits using a MMP-2 Fluorescence assay.; assay type: functional
72 kDa type IV collagenase, sequence (P08253 whole entry): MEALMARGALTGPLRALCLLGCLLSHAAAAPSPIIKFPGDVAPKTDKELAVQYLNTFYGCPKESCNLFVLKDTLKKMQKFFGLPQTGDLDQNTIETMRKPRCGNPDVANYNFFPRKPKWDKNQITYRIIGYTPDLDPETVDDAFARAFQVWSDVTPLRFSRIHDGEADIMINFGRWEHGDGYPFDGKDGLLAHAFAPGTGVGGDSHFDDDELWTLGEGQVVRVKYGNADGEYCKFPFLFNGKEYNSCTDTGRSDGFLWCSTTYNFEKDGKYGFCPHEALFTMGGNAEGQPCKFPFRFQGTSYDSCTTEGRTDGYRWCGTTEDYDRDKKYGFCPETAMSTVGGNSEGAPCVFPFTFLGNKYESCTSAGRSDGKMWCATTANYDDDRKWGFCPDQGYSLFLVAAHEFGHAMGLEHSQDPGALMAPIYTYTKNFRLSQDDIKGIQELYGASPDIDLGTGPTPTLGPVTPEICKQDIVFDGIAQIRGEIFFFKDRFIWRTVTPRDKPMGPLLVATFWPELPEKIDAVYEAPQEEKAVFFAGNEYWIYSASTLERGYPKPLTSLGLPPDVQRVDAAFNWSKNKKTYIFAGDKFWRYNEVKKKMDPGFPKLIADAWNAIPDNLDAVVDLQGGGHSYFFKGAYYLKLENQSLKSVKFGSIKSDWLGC

[5] = molecular target: 26S proteasome non-ATPase regulatory subunit 14 (Homo sapiens, UniProt O00487); assay: inhibition of proteasome subunit RPN11 – biochemical, fluorescence polarization, uHTS hits, confirmation (AID 602368); assay type: functional
26S proteasome non-ATPase regulatory subunit 14, sequence (O00487 whole entry): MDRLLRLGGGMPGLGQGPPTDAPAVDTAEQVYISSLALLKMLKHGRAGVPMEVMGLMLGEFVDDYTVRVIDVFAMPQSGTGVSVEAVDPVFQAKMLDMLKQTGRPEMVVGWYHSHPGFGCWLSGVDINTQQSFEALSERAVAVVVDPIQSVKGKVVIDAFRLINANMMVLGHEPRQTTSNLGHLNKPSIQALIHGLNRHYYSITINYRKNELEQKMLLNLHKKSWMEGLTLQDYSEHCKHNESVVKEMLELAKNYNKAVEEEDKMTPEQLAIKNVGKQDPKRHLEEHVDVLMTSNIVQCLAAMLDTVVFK

[6] = molecular target: Eukaryotic translation initiation factor 4E (Mus musculus, UniProt P63073); assay: blockers of eIF4G binding by eIF4E – biochemical, TR-FRET, dose response (AID 855); assay type: functional;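 note: potency for disrupting eIF4E binding to eIF4GI seen as loss of FRET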
Eukaryotic translation initiation factor 4E, sequence (P63073 whole entry): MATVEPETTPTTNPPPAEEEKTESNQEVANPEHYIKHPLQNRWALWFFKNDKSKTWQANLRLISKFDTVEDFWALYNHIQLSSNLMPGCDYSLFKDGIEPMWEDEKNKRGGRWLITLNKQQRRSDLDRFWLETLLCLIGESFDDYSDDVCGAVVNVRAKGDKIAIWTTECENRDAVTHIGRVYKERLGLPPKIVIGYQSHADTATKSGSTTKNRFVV

[7] = reduced cellular PGC1a acetyl-lysine signal – cell-based, cherry-picked samples, dose response (AID 720514); assay type: functional;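 note: potency may reflect raised or lowered acetylation signal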
[8] = molecular target: T3, Carboxy-terminal domain RNA polymerase II polypeptide A small phosphatase 1 (Homo sapiens, UniProt Q9GZU7); assay: CTDSP1 inhibitors, concentration-response, biochemical, absorbance readout, ultra-high-throughput screen actives (AID 540297); assay type: functional
T3 sequence (Q9GZU7 whole entry): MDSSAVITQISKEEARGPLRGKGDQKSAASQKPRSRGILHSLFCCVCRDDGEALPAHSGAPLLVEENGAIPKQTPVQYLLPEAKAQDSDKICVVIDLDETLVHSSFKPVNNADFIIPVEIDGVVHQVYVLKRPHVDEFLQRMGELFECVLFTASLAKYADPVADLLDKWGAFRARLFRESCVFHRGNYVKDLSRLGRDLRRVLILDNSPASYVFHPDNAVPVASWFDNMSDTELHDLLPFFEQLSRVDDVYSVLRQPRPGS

[9] = system: Streptococcus sp. 'group A'; assay: Streptococcus pyogenes SK(-)GAS viability under kanamycin – luminescence, BacTiterGlo, confirmation, counter-screen for streptokinase expression inhibitor project, dose response (AID 1900); assay type: functional, organism-based
Streptococcus = assay: GAS UMAA2166 growth inhibition – luminescence, BacTiterGlo, counter-screen for streptokinase expression inhibitor project, dose response (AID 1915); assay type: functional, organism-based;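 note: potency for reduction of bacterial viability or growth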
Streptokinase A = molecular target: T4, Streptokinase A (Streptococcus pyogenes serotype M1, UniProt P10520); assay: viability-normalized secreted streptokinase activity reduction – plasminogen activation absorbance, OD405, dose response (AID 1914); assay type: functional, Streptococcus pyogenes M1 GAS;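 note: secreted streptokinase activity via plasminogen activation per viability signal from cell pellet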
T4 sequence (P10520 whole entry): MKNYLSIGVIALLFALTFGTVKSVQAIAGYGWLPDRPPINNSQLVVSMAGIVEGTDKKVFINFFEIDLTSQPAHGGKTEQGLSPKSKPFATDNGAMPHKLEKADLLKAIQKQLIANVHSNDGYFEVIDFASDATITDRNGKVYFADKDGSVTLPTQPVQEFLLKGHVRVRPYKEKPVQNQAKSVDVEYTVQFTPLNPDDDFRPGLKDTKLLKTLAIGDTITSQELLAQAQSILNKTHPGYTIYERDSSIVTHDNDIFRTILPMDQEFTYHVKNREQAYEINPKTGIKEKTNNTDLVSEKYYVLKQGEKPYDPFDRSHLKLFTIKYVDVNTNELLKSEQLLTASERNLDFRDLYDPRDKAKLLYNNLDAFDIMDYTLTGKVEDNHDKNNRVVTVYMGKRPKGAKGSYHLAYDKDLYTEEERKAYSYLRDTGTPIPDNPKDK

[10] = viability loss of HPDE-C7K cells – cell-based, fluorescence, HTS, primary screen (AID 431); assay type: functional; conditions: Homo sapiens
[11] = HPDE-C7 pancreatic duct cell viability loss – fluorescence, HTS (AID 430); assay type: functional, cell-based; conditions: Homo sapiens
[12] = molecular target: T5, Zinc finger protein mex-5 (Caenorhabditis elegans, UniProt Q9XUB2); assay: potency of MEX-5 RNA-binding blockers – biochemical, C. elegans, fluorescence polarization, dose response (AID 1960)
T5 sequence (Q9XUB2 whole entry): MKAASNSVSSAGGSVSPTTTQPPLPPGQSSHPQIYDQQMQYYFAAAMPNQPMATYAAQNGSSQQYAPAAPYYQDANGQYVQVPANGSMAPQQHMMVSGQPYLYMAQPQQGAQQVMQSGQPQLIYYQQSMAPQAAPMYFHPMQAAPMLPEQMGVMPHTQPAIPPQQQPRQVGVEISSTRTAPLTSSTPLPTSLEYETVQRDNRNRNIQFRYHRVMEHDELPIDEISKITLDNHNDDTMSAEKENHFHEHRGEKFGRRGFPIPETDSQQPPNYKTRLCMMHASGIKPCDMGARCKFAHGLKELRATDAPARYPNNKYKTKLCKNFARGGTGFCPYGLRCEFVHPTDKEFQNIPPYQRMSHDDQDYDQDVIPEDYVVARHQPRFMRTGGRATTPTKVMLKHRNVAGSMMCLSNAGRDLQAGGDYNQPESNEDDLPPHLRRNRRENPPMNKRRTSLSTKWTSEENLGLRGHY

[13] = molecular target: T6, RNA-binding protein pos-1 (Caenorhabditis elegans, UniProt G5EF15); assay: disruptors of C. elegans POS-1 RNA interaction – biochemical, fluorescence polarization, dose response (AID 1964);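 note: purified POS-1 fused to maltose binding protein made in E. coli; potency of compounds blocking POS-1 binding to fluorescent RNA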
T6 sequence (G5EF15 whole entry): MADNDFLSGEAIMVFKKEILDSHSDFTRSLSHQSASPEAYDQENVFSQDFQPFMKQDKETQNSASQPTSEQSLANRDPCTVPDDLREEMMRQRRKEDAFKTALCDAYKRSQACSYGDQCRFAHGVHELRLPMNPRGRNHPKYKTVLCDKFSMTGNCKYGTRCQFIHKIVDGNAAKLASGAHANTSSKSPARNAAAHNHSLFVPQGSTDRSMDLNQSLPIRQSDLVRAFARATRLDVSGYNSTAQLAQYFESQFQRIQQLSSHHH

Procathepsin L, sequence (P07711 whole entry): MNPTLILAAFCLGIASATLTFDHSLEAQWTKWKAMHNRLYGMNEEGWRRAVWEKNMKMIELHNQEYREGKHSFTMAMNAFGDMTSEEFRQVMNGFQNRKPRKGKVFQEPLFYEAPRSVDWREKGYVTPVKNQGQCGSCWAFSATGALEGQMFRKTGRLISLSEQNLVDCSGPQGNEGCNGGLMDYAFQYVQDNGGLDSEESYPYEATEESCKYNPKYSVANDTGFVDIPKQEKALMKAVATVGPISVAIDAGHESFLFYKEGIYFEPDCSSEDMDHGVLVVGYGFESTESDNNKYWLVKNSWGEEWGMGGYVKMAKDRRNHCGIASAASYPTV

SMILES: O=S(=O)(Nn1cnnc1)c1ccccc1
- IC50 (Procathepsin L): > 59.6 µM (not active)
- IC50 (Aspartyl aminopeptidase): 3.81 µM (active)

SMILES: Cc1c(NS(=O)(=O)c2ccc(Cl)c(C(=O)OCC(=O)NCc3ccco3)c2)c(=O)n(-c2ccccc2)n1C
- IC50 (Prothrombin [1]): > 50 µM (not active)

SMILES: Cc1nnc(NNS(=O)(=O)c2ccc(Cl)cc2)[nH]c1=O
- IC50 (Procathepsin L): > 59.6 µM (not active)
- IC50 (Aspartyl aminopeptidase): 1.57 µM (active)

SMILES: CC1CN(C(=O)CCC(=O)NC(C)c2ccccc2)c2cc(Cl)ccc2O1 (stereo not drawn)
- IC50 [2]: 15.1 µM (active)

SMILES: CN(CC(=O)Nc1ccc(Cl)cc1)C(=O)CCc1nc(O)c2c3c(sc2n1)CCCC3
- IC50 (Prothrombin [3]): 26.4 µM (active)
- IC50 [4]: > 100 µM (inactive)
- IC50 [5]: 30.7 µM (active)

SMILES: CCOC(=O)c1ccc(/N=C/c2nc(-c3ccccc3)oc2OC(C)=O)cc1
- IC50 (Prothrombin [1]): 0.526 µM (active)

SMILES: CC(=O)Nc1ccc(S(=O)(=O)NCCSc2ccccn2)cc1
- IC50 [6]: > 64 µM (inactive)

SMILES: Cc1c(-n2cccc2C=O)cccc1[N+](=O)[O-]
- IC50 [6]: 50 µM (inactive)

SMILES: COc1c(C)cc(C(=O)C2CCCN(S(=O)(=O)c3c(C)noc3C)C2)cc1C (stereo not drawn)
- IC50 (Prothrombin [1]): > 50 µM (not active)

SMILES: C=CCNc1nc2ccccc2nc1NS(=O)(=O)c1ccc(Br)cc1
- IC50 [2]: 13.2 µM (active)

SMILES: COc1ccc(NC(C)(C)c2nnnn2-c2c(C)cccc2C)cc1
- IC50 [2]: 25.1 µM (active)

SMILES: C/C(=N/NC(=O)c1cc(Cl)ccc1O)C12CC3CC(CC(C3)C1)C2
- IC50 [2]: 8.58 µM (active)

SMILES: COc1ccc(C(=O)N2C(=S)NC(=O)/C2=C\c2ccc(C)cc2)cc1
- IC50 (Prothrombin [3]): 37.8 µM (active)
- IC50 [4]: 23.8 µM (active)
- IC50 [5]: 22.5 µM (active)

SMILES: COc1cc(CN2C[C@@H]3N[C@H](C2)[C@@H]3c2ccc(-c3ccccc3C)cc2)cc(OC)c1
- AC50 [7]: 6.84 µM (active)

SMILES: Cc1nc2ccccn2c1C(=O)NNC(=O)Nc1ccccc1
- IC50 (Procathepsin L): > 59.6 µM (not active)
- IC50 (Aspartyl aminopeptidase): 1.05 µM (active)

SMILES: O=C(Nc1ccc(-c2nc3ccccc3s2)c(O)c1)C1=COCCO1
- IC50 (Prothrombin [3]): 91.4 µM (active)
- IC50 [4]: > 100 µM (inactive)
- IC50 [8]: 3.39 µM (active)
- IC50 [5]: 22.5 µM (active)

SMILES: O=C(Cn1cn[n+](CC(=O)c2ccc(Cl)cc2Cl)c1)c1ccc([N+](=O)[O-])cc1
- EC50 [9]: 11.3 µM (active)
- IC50 (Prothrombin [1]): 1.7 µM (active)
- EC50 (Streptococcus): > 150 µM (not active)
- EC50 (Streptokinase A): 21.4 µM (active)

SMILES: Cc1cc(C)nc(Nc2ccccc2Br)n1
- IC50 (Prothrombin [1]): > 50 µM (not active)

SMILES: Cc1ccccc1CCNCc1cc2cccc(C)c2nc1O
- IC50 [2]: 10 µM (active)

SMILES: CCc1ccc(S(=O)(=O)NC(CC(=O)O)c2ccccc2)cc1 (stereo not drawn)
- EC50 [10]: > 20 µM (not active)
- EC50 [11]: > 20 µM (not active)

SMILES: COC(=O)c1ccccc1NC(=O)c1cc(-c2cccs2)on1
- EC50 [10]: > 20 µM (not active)
- EC50 [11]: > 20 µM (not active)

SMILES: O=C(Cc1ccc(Cl)cc1)OCc1nnc(-c2ccccc2)o1
- IC50 [6]: 50 µM (inactive)

SMILES: Cc1cc(C)nc(SCc2cc(=O)c(OC(=O)c3ccc(Br)o3)co2)n1
- IC50 [2]: 14.5 µM (active)

SMILES: Cc1ccc(/C=C(\C#N)C(=O)Nc2c(C)cccc2C)s1
- IC50 (Prothrombin [3]): 23.5 µM (active)
- IC50 [4]: > 100 µM (inactive)
- IC50 [5]: 13.5 µM (active)
- EC50 [12]: > 300 µM (not active)
- EC50 [13]: > 300 µM (not active)

SMILES: O=C(Cc1ccccc1)OCn1nnc2ccccc2c1=O
- IC50 [6]: > 64 µM (inactive)

SMILES: Cc1c(OCC(N)=O)ccc2c(-c3ccccc3)cc(=O)oc12
- IC50 (Prothrombin [3]): 78.1 µM (active)
- IC50 [4]: 57.2 µM (active)
- IC50 [5]: 57.7 µM (active)

SMILES: Cc1noc(C)c1CSc1nnc(-c2cccnc2)n1C1CCCCC1C (stereo not drawn)
- AC50 [7]: 28.4 µM (active)
